Source: patent publication EP0326329B1, “Quinazoline derivatives useful as insecticides” (Dow AgroSciences LLC, priority 1988, dated 1989)
Where two headings read alike, the source gives them in different places.

How the values were obtained:
Format in all cases: in vivo
[1] = test system: Erysiphe graminis tritici (powdery mildew); experiment: Greenhouse Test 1, foliar spray fungicide screen (POWD MDEW), host wheat; conditions: disease control rating, 400 ppm (+++ at 100 ppm)
[2] = test system: Pyricularia oryzae (rice blast); conditions: disease control rating, foliar spray, host rice; 400 ppm (+++ at 100 ppm)
[3] = test system: Puccinia recondita tritici (leaf rust); experiment: Greenhouse Test 1, foliar spray fungicide screen (LEAF RUST), host wheat; conditions: disease control rating, 400 ppm (+++ at 100 ppm)
[4] = test system: Botrytis cinerea (gray mold); experiment: Greenhouse Test 1, foliar spray fungicide screen (GRAY MOLD), host grape berries; conditions: disease control rating, 400 ppm (+++ at 100 ppm)
[5] = test system: Pseudoperonospora cubensis (downy mildew); experiment: Greenhouse Test 1, foliar spray fungicide screen (DOWN MDEW), host squash; conditions: disease control rating, 400 ppm (+++ at 100 ppm)
[6] = test system: Cercospora beticola (leaf spot); experiment: Greenhouse Test 1, foliar spray fungicide screen (LEAF SPOT), host sugar beet; conditions: disease control rating, 400 ppm (+++ at 100 ppm)
[7] = test system: Venturia inaequalis (apple scab); experiment: Greenhouse Test 1, foliar spray fungicide screen (APPL SCAB), host apple seedling; conditions: disease control rating, 400 ppm (+++ at 100 ppm)
[8] = test system: Septoria tritici (leaf blotch); experiment: Greenhouse Test 1, foliar spray fungicide screen (LEAF BLOT), host wheat; conditions: disease control rating, 400 ppm (+++ at 100 ppm)
[9] = test system: Southern corn rootworm (Diabrotica undecimpuctata howardi Barber); experiment: Mite/insect screen, soil treatment (CRW)
In short: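 Five 2–3 instar larvae were placed on dry sandy soil with a presoaked corn seed after the soil had received 1 mL of compound solution and dried 6–12 h; cups were kept capped at 23°C. Mortality (%) and phytotoxicity were read after standard exposure. Formulation: acetone/alcohol with emulsifiers, water-diluted.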

[10] = test system: southern armyworm (Spodopetra eridania Cramer); experiment: Mite/insect screen, sprayed squash leaves (SAW); conditions: Spodoptera eridania, read-out: SAW RESULTS %
In short: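 Acetone/alcohol (50:50) + emulsifier blends 23 g/L and 13 g/L; water dilution to test concs. Spray both leaf surfaces to runoff, dry 1 h. For armyworm, 2 excised uninfested leaves into Petri dish with larvae. Readout: % mortality, phytotoxicity.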

[11] = test system: Twospotted spider mites (Tetranychus urticae Koch); experiment: Mite/insect screen, sprayed squash cotyledons (SM)
In short: (§1)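 Percent mortality and phytotoxicity are the read-outs, assessed after standard exposure periods. Test solutions, made in 50:50 acetone/alcohol with two sulfonate/nonionic emulsifier blends and diluted in water, are sprayed to runoff on both leaf surfaces, which then dry for one hour.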

[12] = test system: melon aphids (Aphis gossypii Glover); experiment: Mite/insect screen, sprayed squash cotyledons (MA)
In short: as §1

Erysiphe graminis hordei = experiment: Fungicide field tests; conditions: crop: barley
Source text: (§2) Selected compounds were field tested on various crops against a variety of pathogens. […]

[13] = test system: Erysiphe graminis tritici; experiment: Fungicide field tests; conditions: crop: wheat
Source text: as §2

Erysiphe sp. = experiment: Fungicide field tests; conditions: crop: sugar beet
Source text: as §2

Plasmopara viticola = experiment: Fungicide field tests; conditions: crop: grape
Source text: as §2

[14] = test system: Pseudocercosporella herpotrichoides; experiment: Fungicide field tests; conditions: crop: wheat
Source text: as §2

Pyrenophora teres = experiment: Fungicide field tests; conditions: crop: barley
Source text: as §2

Rhynchosporium secalis = experiment: Fungicide field tests; conditions: crop: barley
Source text: as §2

Sphaerotheca fuliginea = experiment: Fungicide field tests; conditions: crop: cucumber
Source text: as §2

Dawson-hop aphid = experiment: Mite and insect field trials; conditions: plant: hops
Description: (§3) 4-[2-[4-(t-butyl)phenyl]ethoxy]quinazoline and 4-[2-(1,1'-biphenyl)-4 biphenyl)-4-ylethoxy]quinazoline were evaluated against a variety of mite and insect species in field trials.

European red mite = experiment: Mite and insect field trials; conditions: plant: apples
Description: as §3

apple aphid = experiment: Mite and insect field trials; conditions: plant: apples
Description: as §3

apple rust mite = experiment: Mite and insect field trials; conditions: plant: apples
Description: as §3

bean aphid = experiment: Mite and insect field trials; conditions: plant: bean, faba broad
Description: as §3

black citrus aphid = experiment: Mite and insect field trials; conditions: plant: lemon
Description: as §3

cereal aphid = experiment: Mite and insect field trials; conditions: plant: barley
Description: as §3

citrus rust mite = experiment: Mite and insect field trials; conditions: tested on grapefruit
Description: as §3

cotton aphid = experiment: Mite and insect field trials; conditions: plant: cotton
Description: as §3

grape leafhopper = experiment: Mite and insect field trials; conditions: plant: grape (European)
Description: as §3

grape thrips = experiment: Mite and insect field trials; conditions: plant: grape (European)
Description: as §3

green cloverworm = experiment: Mite and insect field trials; conditions: plant: alfalfa (Lucerne)
Description: as §3

green peach aphid = experiment: Mite and insect field trials
Description: as §3

greenhouse thrips = experiment: Mite and insect field trials; conditions: plant: azaleas
Description: as §3

pea aphid = experiment: Mite and insect field trials
Description: as §3

potato aphid = experiment: Mite and insect field trials; conditions: plant: turnip
Description: as §3

potato leafhopper = experiment: Mite and insect field trials; conditions: plant: alfalfa (Lucerne)
Description: as §3

rosy apple aphid = experiment: Mite and insect field trials; conditions: plant: apples
Description: as §3

tarnished plant bug = experiment: Mite and insect field trials; conditions: plant: alfalfa (Lucerne)
Description: as §3

thrips = experiment: Mite and insect field trials; conditions: plant: privet
Description: as §3

twospotted spider mite = experiment: Mite and insect field trials
Description: as §3

wheat aphid = experiment: Mite and insect field trials; conditions: plant: wheat
Description: as §3

white apple leafhopper = experiment: Mite and insect field trials; conditions: plant: apples
Description: as §3

yellow hickory aphid = experiment: Mite and insect field trials; conditions: plant: pecan nut
Description: as §3

Alternaria brassicae = experiment: Fungicide field tests; conditions: crop: rape
Source text: as §2

Podosphaera leucotricha = experiment: Fungicide field tests; conditions: crop: apple
Source text: as §2

Septoria nodorum = experiment: Fungicide field tests; conditions: crop: wheat
Source text: as §2

Uncinula necator = experiment: Fungicide field tests; conditions: crop: grapes
Source text: as §2

[15] = Diabrotica, soil, read-out: CRW RESULTS %
[16] = Tetranychus urticae, read-out: SM RESULTS %
[17] = Aphis gossypii, read-out: MA RESULTS %
[18] = percent mortality, spray rate 200 ppm

CC(C)(C)c1ccc(CCOc2ncnc3ccccc23)cc1 [Example 2, 4-[2-[4-(t-butyl)phenyl]ethoxy]quinazoline]
POWD MDEW [1]: ++ (++ = 90-100% control at 400 ppm)
RICE BLAST [2]: +++ (+++ = 90-100% control at 100 ppm)
LEAF RUST [3]: +++ (+++ = 90-100% control at 100 ppm)
GRAY MOLD [4]: - (- = 0-19% control at 400 ppm)
DOWN MDEW [5]: +++ (+++ = 90-100% control at 100 ppm)
LEAF SPOT [6]: ++ (++ = 90-100% control at 400 ppm)
APPL SCAB [7]: + (+ = 20-89% control at 400 ppm)
LEAF BLOT [8]: + (+ = 20-89% control at 400 ppm)
mortality at 12 ppm [9, 15]: 0%
mortality at 24 ppm [9, 15]: 0%
mortality at 200 ppm [10]: 0%
mortality at 400 ppm [10]: 20%
mortality at 200 ppm [11, 16]: 100%
mortality at 400 ppm [11, 16]: 90%
mortality at 200 ppm [12, 17]: 90%
mortality at 400 ppm [12, 17]: 80%
pathogen against which compound demonstrated activity in field tests (Erysiphe graminis hordei): Erysiphe graminis hordei
pathogen against which compound demonstrated activity in field tests [13]: Erysiphe graminis tritici
pathogen against which compound demonstrated activity in field tests (Erysiphe sp.): Erysiphe sp.
pathogen against which compound demonstrated activity in field tests (Plasmopara viticola): Plasmopara viticola
pathogen against which compound demonstrated activity in field tests [14]: Pseudocercosporella herpotrichoides
pathogen against which compound demonstrated activity in field tests (Pyrenophora teres): Pyrenophora teres
pathogen against which compound demonstrated activity in field tests (Rhynchosporium secalis): Rhynchosporium secalis
pathogen against which compound demonstrated activity in field tests (Sphaerotheca fuliginea): Sphaerotheca fuliginea
mite or insect species against which they showed activity in field trials (Dawson-hop aphid): Dawson-hop aphid
mite or insect species against which they showed activity in field trials (European red mite): European red mite
mite or insect species against which they showed activity in field trials (apple aphid): apple aphid
mite or insect species against which they showed activity in field trials (apple rust mite): apple rust mite
mite or insect species against which they showed activity in field trials (bean aphid): bean aphid
mite or insect species against which they showed activity in field trials (black citrus aphid): black citrus aphid
mite or insect species against which they showed activity in field trials (cereal aphid): cereal aphid
activity against citrus rust mite in field trials (citrus rust mite): showing activity
mite or insect species against which they showed activity in field trials (cotton aphid): cotton aphid
mite or insect species against which they showed activity in field trials (grape leafhopper): grape leafhopper
mite or insect species against which they showed activity in field trials (grape thrips): grape thrips
mite or insect species against which they showed activity in field trials (green cloverworm): green cloverworm
mite or insect species against which they showed activity in field trials (green peach aphid; plant: apples): green peach aphid
mite or insect species against which they showed activity in field trials (green peach aphid; plant: sugar beet): green peach aphid
mite or insect species against which they showed activity in field trials (greenhouse thrips): greenhouse thrips
mite or insect species against which they showed activity in field trials (pea aphid; plant: alfalfa (Lucerne)): pea aphid
mite or insect species against which they showed activity in field trials (pea aphid; plant: pea, garden (English)): pea aphid
mite or insect species against which they showed activity in field trials (potato aphid): potato aphid
mite or insect species against which they showed activity in field trials (potato leafhopper): potato leafhopper
mite or insect species against which they showed activity in field trials (rosy apple aphid): rosy apple aphid
mite or insect species against which they showed activity in field trials (tarnished plant bug): tarnished plant bug
mite or insect species against which they showed activity in field trials (thrips): thrips
mite or insect species against which they showed activity in field trials (twospotted spider mite; plant: azaleas): twospotted spider mite
mite or insect species against which they showed activity in field trials (twospotted spider mite; plant: broccoli): twospotted spider mite
mite or insect species against which they showed activity in field trials (twospotted spider mite; plant: plum (Japanese)): twospotted spider mite
mite or insect species against which they showed activity in field trials (wheat aphid): wheat aphid
mite or insect species against which they showed activity in field trials (white apple leafhopper): white apple leafhopper
mite or insect species against which they showed activity in field trials (yellow hickory aphid): yellow hickory aphid

c1ccc2cc(CCNc3ncnc4ccccc34)ccc2c1 [Example 53, N-[2-(2-naphthyl)ethyl]-4-quinazolinamine]
POWD MDEW [1]: +++ (+++ = 90-100% control at 100 ppm)
RICE BLAST [2]: +++ (+++ = 90-100% control at 100 ppm)
LEAF RUST [3]: +++ (+++ = 90-100% control at 100 ppm)
GRAY MOLD [4]: - (- = 0-19% control at 400 ppm)
DOWN MDEW [5]: +++ (+++ = 90-100% control at 100 ppm)
LEAF SPOT [6]: - (- = 0-19% control at 400 ppm)
APPL SCAB [7]: + (+ = 20-89% control at 400 ppm)
LEAF BLOT [8]: +++ (+++ = 90-100% control at 100 ppm)
mortality at 12 ppm ([9]; Diabrotica, percent mortality, soil treatment, CRW rate 12.00 ppm, read-out: CRW RESULTS %): 0%
CRW RESULTS % ([9]; percent mortality, soil treatment, CRW rate 12.00 ppm): 0%
mortality at 200 ppm ([11]; Tetranychus urticae, percent mortality, spray rate 200 ppm, read-out: SM RESULTS %): 0%
SM RESULTS % [11, 18]: 0%
mortality at 200 ppm ([12]; Aphis gossypii, percent mortality, spray rate 200 ppm, read-out: MA RESULTS %): 0%
MA RESULTS % [12, 18]: 0%
pathogen against which compound demonstrated activity in field tests (Alternaria brassicae): Alternaria brassicae
pathogen against which compound demonstrated activity in field tests (Erysiphe graminis hordei): Erysiphe graminis hordei
pathogen against which compound demonstrated activity in field tests [13]: Erysiphe graminis tritici
pathogen against which compound demonstrated activity in field tests (Plasmopara viticola): Plasmopara viticola
pathogen against which compound demonstrated activity in field tests (Podosphaera leucotricha): Podosphaera leucotricha
pathogen against which compound demonstrated activity in field tests [14]: Pseudocercosporella herpotrichoides
pathogen against which compound demonstrated activity in field tests (Pyrenophora teres): Pyrenophora teres
pathogen against which compound demonstrated activity in field tests (Rhynchosporium secalis): Rhynchosporium secalis
pathogen against which compound demonstrated activity in field tests (Septoria nodorum): Septoria nodorum
pathogen against which compound demonstrated activity in field tests (Sphaerotheca fuliginea): Sphaerotheca fuliginea
pathogen against which compound demonstrated activity in field tests (Uncinula necator): Uncinula necator
